Source: US8871267B2, “Protein matrix materials, devices and methods of making and using thereof” (Gel-Del Technologies, Inc., priority 1998, dated 2014)

Legend:
hepatocytes = assay: Biological activity of released hEGF in in-vitro cell culture; format: cell-based; conditions: subsequent studies using hepatocytes
xanthine oxidase = biological target: T1, xanthine oxidase (Bos taurus, UniProt P80457); assay: Enzyme activity of xanthine oxidase in the device piece (Sigma Enzymatic Assay of Superoxide Dismutase protocol); format: biochemical; conditions: 0.01 unit solution
T1 construct: purchased Sigma Chemical Company, St. Louis Mo
Method: A single cylinder piece, prepared as described above in Example 1, was added to a reaction chamber in a spectrophotometer containing xanthine, cytochrome C and other reactants according to previously described superoxide dismutase protocol (Sigma Quality Control Test Procedure EC 1.15.1.1 “Enzymatic Assay of Superoxide Dismutase”) enzyme activity of the enzyme xanthine oxidase in the piece was calculated at 0.0005 delta absorbance min (absorbance measured at 550 mm where no enzyme activity produces 0.00000 change in absorbance). In comparison to a 0.01 unit solution of xanthine oxidase, which produced 0.0250 delta absorbance/min, the activity of the xanthine oxidase in the piece equaled 1% of the control solution in a time period of only 3 minutes.

T1 sequence (P80457 2-1332 limits assumed): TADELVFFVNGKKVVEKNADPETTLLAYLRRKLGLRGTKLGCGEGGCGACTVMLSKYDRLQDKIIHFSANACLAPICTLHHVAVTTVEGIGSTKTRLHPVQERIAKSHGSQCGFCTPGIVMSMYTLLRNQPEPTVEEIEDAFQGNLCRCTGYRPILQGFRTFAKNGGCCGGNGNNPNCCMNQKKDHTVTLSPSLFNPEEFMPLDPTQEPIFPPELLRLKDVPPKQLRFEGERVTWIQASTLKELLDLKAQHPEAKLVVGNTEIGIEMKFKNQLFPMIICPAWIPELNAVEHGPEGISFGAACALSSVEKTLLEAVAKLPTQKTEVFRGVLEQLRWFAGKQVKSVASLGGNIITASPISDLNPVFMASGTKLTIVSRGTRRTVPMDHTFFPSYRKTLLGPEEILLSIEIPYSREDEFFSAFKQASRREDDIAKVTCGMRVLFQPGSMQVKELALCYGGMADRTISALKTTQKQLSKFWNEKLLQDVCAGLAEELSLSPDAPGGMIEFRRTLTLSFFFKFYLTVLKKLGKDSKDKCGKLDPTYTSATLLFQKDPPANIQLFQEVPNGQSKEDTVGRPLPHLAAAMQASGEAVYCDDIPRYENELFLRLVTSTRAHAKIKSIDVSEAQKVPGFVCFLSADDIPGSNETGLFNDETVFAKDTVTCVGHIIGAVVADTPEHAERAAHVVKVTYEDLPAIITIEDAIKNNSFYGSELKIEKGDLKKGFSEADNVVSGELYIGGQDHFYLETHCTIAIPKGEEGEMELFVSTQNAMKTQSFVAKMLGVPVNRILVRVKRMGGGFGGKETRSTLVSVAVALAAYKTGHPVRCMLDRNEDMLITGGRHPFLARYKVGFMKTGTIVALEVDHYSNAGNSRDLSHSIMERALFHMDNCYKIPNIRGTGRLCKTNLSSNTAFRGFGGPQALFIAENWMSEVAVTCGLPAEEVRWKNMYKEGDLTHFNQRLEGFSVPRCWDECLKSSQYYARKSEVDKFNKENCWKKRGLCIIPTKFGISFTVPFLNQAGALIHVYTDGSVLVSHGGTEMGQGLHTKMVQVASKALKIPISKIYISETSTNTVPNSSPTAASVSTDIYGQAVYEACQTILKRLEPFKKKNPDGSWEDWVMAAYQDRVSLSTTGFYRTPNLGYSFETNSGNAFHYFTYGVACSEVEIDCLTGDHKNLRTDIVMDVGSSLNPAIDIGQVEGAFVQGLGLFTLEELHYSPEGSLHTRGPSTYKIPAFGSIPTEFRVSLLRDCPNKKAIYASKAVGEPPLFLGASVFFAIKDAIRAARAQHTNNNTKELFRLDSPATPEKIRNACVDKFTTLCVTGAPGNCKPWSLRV

hEGF: recombinant human epidermal growth factor (R&D System) (NSDSECPLSHDGYCLHDGVCMYIEALDKYACNCVVGYIGERCQYRDLKWWELR; not fully specified; Epidermal growth factor; UniProt P01133 971-1023, looked up)
biological activity of released hEGF (hepatocytes): has biological activity

xanthine oxidase
rate produced by xanthine oxidase solution (xanthine oxidase): 0.0250 delta absorbance/min
